What was measured:
[1] = target: T1, Solute carrier organic anion transporter family member 2B1 (Homo sapiens, UniProt O94956); assay: Drug uptake assessed as human OATP2B1 expressed in Xenopus laevis oocyte mediated drug accumulation per 180 mins per oocyte at 1 uM by LC-MS/MS method; type: ADME; conditions: 3 h
T1 sequence (O94956 whole entry): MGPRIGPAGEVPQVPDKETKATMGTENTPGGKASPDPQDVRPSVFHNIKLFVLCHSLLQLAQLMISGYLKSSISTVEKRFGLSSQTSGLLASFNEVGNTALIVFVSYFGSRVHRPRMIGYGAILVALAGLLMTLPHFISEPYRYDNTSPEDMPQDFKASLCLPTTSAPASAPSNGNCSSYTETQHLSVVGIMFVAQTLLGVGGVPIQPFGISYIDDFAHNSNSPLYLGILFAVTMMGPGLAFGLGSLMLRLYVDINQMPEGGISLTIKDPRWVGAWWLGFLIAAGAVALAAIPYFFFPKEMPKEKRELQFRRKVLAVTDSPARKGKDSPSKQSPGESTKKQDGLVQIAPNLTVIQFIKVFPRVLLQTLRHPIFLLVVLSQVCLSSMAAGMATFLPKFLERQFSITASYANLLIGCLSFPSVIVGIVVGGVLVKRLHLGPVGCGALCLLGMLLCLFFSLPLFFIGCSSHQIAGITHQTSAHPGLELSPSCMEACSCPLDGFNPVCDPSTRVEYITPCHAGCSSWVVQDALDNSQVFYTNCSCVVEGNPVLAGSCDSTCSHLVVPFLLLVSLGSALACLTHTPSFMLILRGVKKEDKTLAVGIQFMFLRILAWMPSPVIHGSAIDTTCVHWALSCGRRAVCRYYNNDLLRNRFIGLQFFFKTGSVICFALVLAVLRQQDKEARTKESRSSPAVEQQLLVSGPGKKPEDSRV

[2] = target: T2, Solute carrier organic anion transporter family member 2B1 (Homo sapiens, UniProt O94956, H579Q); assay: Drug uptake assessed as human OATP2B1 H579Q mutant expressed in Xenopus laevis oocyte mediated drug accumulation at 1 uM after 180 mins by LC-MS/MS method relative to wild type protein; type: ADME; conditions: 3 h
T2 sequence (O94956 whole entry T392I/H579Q): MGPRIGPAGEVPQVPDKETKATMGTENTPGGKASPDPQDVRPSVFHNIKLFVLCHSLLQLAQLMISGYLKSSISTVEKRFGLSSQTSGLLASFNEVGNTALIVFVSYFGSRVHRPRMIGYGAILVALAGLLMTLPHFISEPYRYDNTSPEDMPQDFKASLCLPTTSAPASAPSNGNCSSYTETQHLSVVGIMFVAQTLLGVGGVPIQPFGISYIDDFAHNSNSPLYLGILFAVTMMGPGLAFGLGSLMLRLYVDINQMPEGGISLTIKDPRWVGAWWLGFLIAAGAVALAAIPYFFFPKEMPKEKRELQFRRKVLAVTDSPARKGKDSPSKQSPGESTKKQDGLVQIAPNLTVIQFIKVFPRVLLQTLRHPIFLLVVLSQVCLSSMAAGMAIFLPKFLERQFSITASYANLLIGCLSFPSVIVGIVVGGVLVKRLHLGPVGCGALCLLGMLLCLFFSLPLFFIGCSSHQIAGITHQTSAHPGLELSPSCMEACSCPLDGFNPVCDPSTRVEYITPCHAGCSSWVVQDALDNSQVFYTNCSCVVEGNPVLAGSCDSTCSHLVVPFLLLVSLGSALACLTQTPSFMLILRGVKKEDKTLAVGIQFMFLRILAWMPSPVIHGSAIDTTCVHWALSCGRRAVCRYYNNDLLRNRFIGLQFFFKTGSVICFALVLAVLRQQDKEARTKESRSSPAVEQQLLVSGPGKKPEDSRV

[3] = target: T3, Solute carrier organic anion transporter family member 2B1 (Homo sapiens, UniProt O94956, H618Q); assay: Drug uptake assessed as human OATP2B1 H618Q mutant expressed in Xenopus laevis oocyte mediated drug accumulation at 1 uM after 180 mins by LC-MS/MS method relative to wild type protein; type: ADME; conditions: 3 h
T3 sequence (O94956 whole entry T392I/H618Q): as the sequence (O94956 whole entry T392I/H579Q) above, with Q579H, H618Q counted along it

[4] = target: T4, Solute carrier organic anion transporter family member 2B1 (Homo sapiens, UniProt O94956, R607A); assay: Drug uptake assessed as human OATP2B1 R607A mutant expressed in Xenopus laevis oocyte mediated drug accumulation at 1 uM after 180 mins by LC-MS/MS method relative to wild type protein; type: ADME; conditions: 3 h
T4 sequence (O94956 whole entry T392I/R607A): as the sequence (O94956 whole entry T392I/H579Q) above, with Q579H, R607A counted along it

[5] = system: C[C@]12CC[C@@H]3c4ccc(OS(=O)(=O)O)cc4CC[C@H]3[C@@H]1CCC2=O; assay: Substrate activity at human OATP2B1 H579Q mutant high affinity site expressed in Xenopus laevis oocytes assessed as Km for transporter-mediated drug accumulation after 15 mins by Eadie-Hofstee plot method; type: ADME, cell-based
[6] = target: T1, Solute carrier organic anion transporter family member 2B1; assay: Drug uptake assessed as human OATP2B1 expressed in Xenopus laevis oocyte mediated drug accumulation per 120 mins per oocyte at 1 uM by LC-MS/MS method; type: ADME; conditions: 2 h
[7] = target: T2, Solute carrier organic anion transporter family member 2B1; assay: Drug uptake assessed as human OATP2B1 H579Q mutant expressed in Xenopus laevis oocyte mediated drug accumulation at 1 uM after 120 mins by LC-MS/MS method relative to wild type protein; type: ADME; conditions: 2 h
[8] = target: T3, Solute carrier organic anion transporter family member 2B1; assay: Drug uptake assessed as human OATP2B1 H618Q mutant expressed in Xenopus laevis oocytes mediated drug accumulation at 1 uM after 120 mins by LC-MS/MS method relative to wild type protein; type: ADME, cell-based; conditions: 2 h
[9] = target: T4, Solute carrier organic anion transporter family member 2B1; assay: Drug uptake assessed as human OATP2B1 R607A mutant expressed in Xenopus laevis oocyte mediated drug accumulation at 1 uM after 120 mins by LC-MS/MS method relative to wild type protein; type: ADME; conditions: 2 h
[10] = target: T1, Solute carrier organic anion transporter family member 2B1; assay: Drug uptake assessed as human OATP2B1 expressed in Xenopus laevis oocyte mediated drug accumulation per 30 mins per oocyte at 0.003 uM by LC-MS/MS method; type: ADME; conditions: 0.5 h
[11] = target: T2, Solute carrier organic anion transporter family member 2B1; assay: Drug uptake assessed as human OATP2B1 H579Q mutant expressed in Xenopus laevis oocyte mediated drug accumulation at 0.003 uM after 30 mins by LC-MS/MS method relative to wild type protein; type: ADME; conditions: 0.5 h
[12] = target: T3, Solute carrier organic anion transporter family member 2B1; assay: Drug uptake assessed as human OATP2B1 H618Q mutant expressed in Xenopus laevis oocyte mediated drug accumulation at 0.003 uM after 30 mins by LC-MS/MS method relative to wild type protein; type: ADME; conditions: 0.5 h
[13] = target: T4, Solute carrier organic anion transporter family member 2B1; assay: Drug uptake assessed as human OATP2B1 R607A mutant expressed in Xenopus laevis oocyte mediated drug accumulation at 0.003 uM after 30 mins by LC-MS/MS method relative to wild type protein; type: ADME; conditions: 0.5 h
[14] = system: C[C@]12CC[C@@H]3c4ccc(OS(=O)(=O)O)cc4CC[C@H]3[C@@H]1CCC2=O; assay: Substrate activity at human OATP2B1 H618Q mutant high affinity site expressed in Xenopus laevis oocytes assessed as Km for transporter-mediated drug accumulation after 15 mins by Eadie-Hofstee plot method; type: ADME, cell-based
[15] = system: C[C@]12CC[C@@H]3c4ccc(OS(=O)(=O)O)cc4CC[C@H]3[C@@H]1CCC2=O; assay: Substrate activity at human OATP2B1 H618Q mutant low affinity site expressed in Xenopus laevis oocytes assessed as Km for transporter-mediated drug accumulation after 15 mins by Eadie-Hofstee plot method; type: ADME, cell-based
[16] = substrate: C[C@]12CC[C@@H]3c4ccc(OS(=O)(=O)O)cc4CC[C@H]3[C@@H]1CCC2=O; assay: Substrate activity at human OATP2B1 high affinity site expressed in Xenopus laevis oocytes assessed as Km for transporter-mediated drug accumulation after 15 mins by Eadie-Hofstee plot method; type: ADME, cell-based
[17] = substrate: C[C@]12CC[C@@H]3c4ccc(OS(=O)(=O)O)cc4CC[C@H]3[C@@H]1CCC2=O; assay: Substrate activity at human OATP2B1 low affinity site expressed in Xenopus laevis oocytes assessed as Km for transporter-mediated drug accumulation after 15 mins by Eadie-Hofstee plot method; type: ADME, cell-based
[18] = substrate: CC[C@H](C)C(=O)O[C@H]1C[C@H](O)C=C2C=C[C@H](C)[C@H](CC[C@@H](O)C[C@@H](O)CC(=O)O)[C@H]21; assay: (§1) Drug uptake assessed as OATP2B1 low affinity site (unknown origin)-mediated drug uptake; type: ADME, Homo sapiens
[19] = substrate: C[C@]12CC[C@@H]3c4ccc(OS(=O)(=O)O)cc4CC[C@H]3[C@@H]1CCC2=O; assay: as §1; type: ADME, Homo sapiens
[20] = substrate: CC[C@H](C)C(=O)O[C@H]1C[C@H](O)C=C2C=C[C@H](C)[C@H](CC[C@@H](O)C[C@@H](O)CC(=O)O)[C@H]21; assay: (§2) Drug uptake assessed as OATP2B1 high affinity site (unknown origin)-mediated drug uptake; type: ADME, Homo sapiens
[21] = substrate: C[C@]12CC[C@@H]3c4ccc(OS(=O)(=O)O)cc4CC[C@H]3[C@@H]1CCC2=O; assay: as §2; type: ADME, Homo sapiens
[22] = substrate: O=C(O)c1cc(/N=N/c2ccc(S(=O)(=O)Nc3ccccn3)cc2)ccc1O; assay: as §2; type: ADME, Homo sapiens

CC[C@H](C)C(=O)O[C@H]1C[C@H](O)C=C2C=C[C@H](C)[C@H](CC[C@@H](O)C[C@@H](O)CC(=O)O)[C@H]21 [PRAVASTATIN]
Drug uptake [1]: 0.196 µL | Drug uptake [2]: 32.5% | Drug uptake [3]: 40% | Drug uptake [4]: 0.2%

Solute carrier organic anion transporter family member 2B1 (Homo sapiens; H579Q)
Km [5]: 0.18 µM

CC(C)(C(=O)O)c1ccc(C(O)CCCN2CCC(C(O)(c3ccccc3)c3ccccc3)CC2)cc1 (stereo not given) [FEXOFENADINE]
Drug uptake [6]: 0.056 µL | Drug uptake [7]: 147% | Drug uptake [8]: 121% | Drug uptake [9]: 28.5%

CC(C)c1nc(N(C)S(C)(=O)=O)nc(-c2ccc(F)cc2)c1/C=C/[C@@H](O)C[C@@H](O)CC(=O)O [ROSUVASTATIN]
Drug uptake [6]: 2.951 µL | Drug uptake [7]: 39.8% | Drug uptake [8]: 33.1% | Drug uptake [9]: 5.79%

CCCCC[C@H](O)/C=C/[C@H]1[C@H](O)CC(=O)[C@@H]1C/C=C\CCCC(=O)O [DINOPROSTONE]
Drug uptake [10]: 0.461 µL | Drug uptake [11]: 138% | Drug uptake [12]: 97.4% | Drug uptake [13]: 45.3%

O=C(O)c1cc(/N=N/c2ccc(S(=O)(=O)Nc3ccccn3)cc2)ccc1O [SULFASALAZINE]
Drug uptake [6]: 1.934 µL | Drug uptake [7]: 41% | Drug uptake [8]: 22.2% | Drug uptake [9]: 7.57%

Solute carrier organic anion transporter family member 2B1 (Homo sapiens; H618Q)
Km [14]: 0.149 µM | Km [15]: 91.1 µM

B1: Solute carrier organic anion transporter family member 2B1 (Homo sapiens) (protein)
chain: T1 sequence (O94956 whole entry)
Km [16]: 0.463 µM | Km [17]: 51.4 µM | Km [18]: 225 µM | Km [19]: 29.9 µM | Km [20]: 6.25 µM | Km [21]: 0.1 µM | Km [22]: 1.73 µM

Reference: ChEMBL document CHEMBL4049381 (Medchemcomm, 2016)
